These results are taken from patent US20240025887A1, “THIENYL AND CYCLOALKYL AMINOPYRIMIDINE COMPOUNDS AS INHIBITORS OF NUAK KINASES, COMPOSITIONS AND USES THEREOF” (Ontario Institute for Cancer Research (OICR), priority 2021, published 2024).

One experiment has as its target T1, Aurora A (Homo sapiens, UniProt O14965).
T1 sequence (O14965 1-403): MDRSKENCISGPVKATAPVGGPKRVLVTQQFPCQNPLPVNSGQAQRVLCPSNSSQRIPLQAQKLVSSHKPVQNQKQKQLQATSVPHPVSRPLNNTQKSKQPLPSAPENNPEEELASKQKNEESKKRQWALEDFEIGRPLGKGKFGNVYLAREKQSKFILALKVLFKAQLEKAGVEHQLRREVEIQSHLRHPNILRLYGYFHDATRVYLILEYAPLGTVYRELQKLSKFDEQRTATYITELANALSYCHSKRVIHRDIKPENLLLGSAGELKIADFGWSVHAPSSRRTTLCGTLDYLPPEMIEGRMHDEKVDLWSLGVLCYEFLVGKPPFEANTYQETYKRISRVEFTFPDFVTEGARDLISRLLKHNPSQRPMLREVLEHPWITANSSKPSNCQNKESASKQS
As to the kind of experiment: Aurora A counter screen. It is filed as biochemical. The following applies: read-out: AUR-A (IC50). A digest of the protocol:
(§1)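 Radiometric assay with full-length recombinant NUAK2 in 8 mM MOPS pH 7.0, 0.2 mM EDTA, 10 mM magnesium acetate, 300 μM peptide substrate and [33P]-ATP, 40 min at room temperature. Phosphoric acid stop, filter capture, scintillation counting. Aurora A and NUAK1 used as counter screens.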
(In general: The purpose of a counterscreen is to sort out artefacts and off-target activity.)

A further experiment concerns the target T2, NUAK2 (h) (Homo sapiens, UniProt Q9H093).
T2 construct: This assay was done radiometrically using full-length, recombinant enzyme; purchased Eurofins
T2 sequence (Q9H093 1-628): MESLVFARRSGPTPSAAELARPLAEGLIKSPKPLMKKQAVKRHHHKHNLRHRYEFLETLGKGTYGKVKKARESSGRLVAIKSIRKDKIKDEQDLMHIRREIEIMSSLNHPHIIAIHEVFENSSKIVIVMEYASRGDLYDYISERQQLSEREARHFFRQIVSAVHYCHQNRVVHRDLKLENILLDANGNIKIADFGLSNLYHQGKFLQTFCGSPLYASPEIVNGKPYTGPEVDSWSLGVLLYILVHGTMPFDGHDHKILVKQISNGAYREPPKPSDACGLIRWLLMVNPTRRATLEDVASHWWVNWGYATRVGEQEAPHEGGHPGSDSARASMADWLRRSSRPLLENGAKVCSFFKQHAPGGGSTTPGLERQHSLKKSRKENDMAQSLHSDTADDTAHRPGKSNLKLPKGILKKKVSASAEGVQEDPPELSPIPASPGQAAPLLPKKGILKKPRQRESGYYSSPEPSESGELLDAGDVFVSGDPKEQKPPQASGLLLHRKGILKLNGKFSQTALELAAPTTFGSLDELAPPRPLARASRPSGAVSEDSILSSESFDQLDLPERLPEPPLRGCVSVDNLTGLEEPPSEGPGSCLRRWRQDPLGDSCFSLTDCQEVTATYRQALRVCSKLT
Nature of the experiment: NUAK2 enzymatic assay (radiometric, Eurofins). It is filed as biochemical. A digest of the protocol:
as §1

A further experiment has as its system MDA-MB-231 cells. Nature of the experiment: Tumor cell growth inhibition assay (ATPlite). The experiment is classed as cell-based. The following applies: Homo sapiens, 120 h, MDA-MB-231 breast tumor cell line, 5 days. The procedure: MDA-MB-231 cells were seeded into a 384-well plate at 1,000 cells/well in 50 μl medium (Alpha-MEM containing 10% FBS, […] Normocin, Invivogen and […] Gentamycin, Invitrogen). Plates were then incubated overnight for the cells to attach. An HP D300 digital dispenser was used to dose cells with DMSO or test compounds across a 16-point range of concentrations (high dose of 10 uM to low dose of 5 nM). Plates were incubated in a humidified 5% CO2 incubator at 37° C. After 5 days, plates were removed from the incubator and equilibrated to room temperature. An equal volume of ATPlite assay reagent was then added to each well, and samples processed according to manufacturer's instructions (Perkin Elmer). Luminescent signals were then measured using an Envision plate reader equipped with a US-Luminescence detector.
In general terms: Cellular ATP, detected with luciferase, serves as a proxy for viable cell number.

Experiment [1] concerns YAP/TAZ nuclear localization in Clover-YAP expressing MDA-MB-231 cells. Nature of the experiment: Cell-based YAP/TAZ localization assay. The following applies: Clover-YAP MDA-MB-231 cells, live imaging every 10 min for 2 h, FIG. 1. The method, then:
Compounds of the application were tested for their ability to inhibit localization of YAP/TAZ to the nucleus of cells using an assay generally described in Nature Communications, 2018, 9:3510. Live cell imaging of Clover-YAP expressing MDA-MB-231 cells was carried out using a custom WAVE-FX-X1 spinning disc confocal system (Quorum Technologies) with a modified Yokogawa CSU-X1 scanhead on an AxioObserver Z1 inverted microscope (Carl Zeiss) with a x40 NA 1.2 Plan Apochromat (Carl Zeiss) objective. Cells were plated in a 35 mm glass-bottom dish (Mat-Tek, P35G-1.5-14-C) and were maintained in a stage-top incubator at 37° C. and 5% CO2 during imaging. Cells were cultured in phenol-red free RPMI medium (Thermo Fisher Scientific, 11835030) with 5% FBS and 200 nM SiR-DNA (Spirochrom, S0007) was added 1 h prior to imaging to visualize the nuclei. Localization of Clover-YAP was monitored every 10 min for 2 h. Volocity software was used for image acquisition and processing.

The test system of experiment [2] is pSer445 MYPT1 in MDA-MB-231 cells. Nature of the experiment: Cell-based phospho-MYPT1 assay. To be noted: 500 nM, 1 hour, immunoblot, FIG. 2. The method, then:
Compounds with sufficient activity in the biochemical NUAK assay were evaluated in a cell-based assay to confirm their targeted activity. To allow direct assessment of target engagement by NUAK2 inhibitors in cells, an antibody to MYPT1, a NUAK2 substrate, which specifically recognizes the phosphorylated Ser445 epitope in endogenous MYPT1 protein was utilized (Biochem J. 2014 457 (Pt 1): 215-225; Biochem J. 201 461 (Pt 2): 233-245).
MDA-MB-231 cells were incubated in the absence (DMSO) or presence of Compound I-1 (500 nM) for 1 hour. Cell were lysed at 4° C. for 30 mins in RIPA buffer (50 mM tris-HCL, 150 mM NaCl, 1 mM EDTA, 0.1% SDS, 1% NP-40, 0.5% Sodium deoxycholate) containing protease and phosphatase inhibitors. Samples were separated by sodium dodecyl sulfate-polyacrylamide gel electrophoresis (SDS-PAGE), transferred to nitrocellulose and immunoblotted for the detection of pSer^445MYPT1 or ACTIN.
(Immunoblotting shows a protein as a band on a membrane.)

The target of the next experiment is T3, NUAK1 (Homo sapiens, UniProt O60285).
T3 sequence (O60285 1-661): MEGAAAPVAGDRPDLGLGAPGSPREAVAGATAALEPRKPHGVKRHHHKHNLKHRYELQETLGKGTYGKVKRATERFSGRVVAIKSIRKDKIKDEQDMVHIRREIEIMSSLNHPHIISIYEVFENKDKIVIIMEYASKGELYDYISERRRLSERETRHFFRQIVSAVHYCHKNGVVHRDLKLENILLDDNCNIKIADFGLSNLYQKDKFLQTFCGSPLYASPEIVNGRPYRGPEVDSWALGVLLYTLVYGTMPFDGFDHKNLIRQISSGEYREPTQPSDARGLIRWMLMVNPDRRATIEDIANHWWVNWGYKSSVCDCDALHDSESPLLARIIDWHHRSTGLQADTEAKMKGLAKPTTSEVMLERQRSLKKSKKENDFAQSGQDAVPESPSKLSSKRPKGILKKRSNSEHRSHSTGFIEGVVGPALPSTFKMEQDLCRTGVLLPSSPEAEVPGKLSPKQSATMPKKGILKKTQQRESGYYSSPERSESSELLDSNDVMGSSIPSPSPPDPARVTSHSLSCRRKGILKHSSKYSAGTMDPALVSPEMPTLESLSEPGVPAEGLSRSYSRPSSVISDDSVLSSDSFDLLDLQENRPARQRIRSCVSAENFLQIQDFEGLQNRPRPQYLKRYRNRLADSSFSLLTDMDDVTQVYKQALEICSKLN
As to the kind of experiment: NUAK1 counter screen. The experiment is classed as biochemical. A digest of the protocol:
as §1

What is called IC50 is the point on the concentration scale where inhibition reaches its midpoint. Regarding `CN1CCN(c2ccc(Nc3ncc(Cl)c(Nc4ccsc4C(N)=O)n3)c(OC(F)F)c2)CC1` [Compound I-1, 3-((5-chloro-2-((2-(difluoromethoxy)-4-(4-methylpiperazin-1-yl)phenyl)amino)pyrimidin-4-yl)amino)thiophene-2-carboxamide], the IC50 was 101 to 1000 nM on Aurora A; 0.1 to 10 nM on NUAK2 (h) (radiometric, full-length recombinant enzyme); 195 nM in the experiment with MDA-MB-231 cells; 11 to 100 nM at NUAK1. At NUAK2 (h) (NUAK2 selectivity over Aurora-A, ratio of IC50s), the “AUR-A (IC50, nM)/NUAK2 (IC50, nM)” value is on record as 40. Moreover, the “inhibition of YAP/TAZ nuclear localization” value in experiment [1] is reported as “significant improvement in inhibition of YAP/TAZ nuclear localization”. Also, the “formation of cellular p-MYPT1 (pSer445)” value in experiment [2] was “inhibits the formation of cellular p-MYPT1”.
